Assay results from PubChem BioAssay (NCI).
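In this assay, cells in 96-well plates receive the compound at five concentrations for 48 hours. Endpoints are linearly interpolated between the surrounding concentrations. Abbreviation: GI50, concentration required for 50% inhibition of growth. TGI: total growth inhibition.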

Assays:
Assay in all cases: NCI-60 cell line screen, 48 h
TK-10 renal = tested on: TK-10 renal
HT29 colon = tested on: HT29 colon
MDA-MB-231 breast = tested on: MDA-MB-231 breast
SK-OV-3 ovarian = tested on: SK-OV-3 ovarian
SW-620 colon = tested on: SW-620 colon
UACC-62 melanoma = tested on: UACC-62 melanoma
A549 NSCLC = tested on: A549 NSCLC
T-47D breast = tested on: T-47D breast
EKVX NSCLC = tested on: EKVX NSCLC
SK-MEL-28 melanoma = tested on: SK-MEL-28 melanoma
NCI-H522 lung = tested on: NCI-H522 lung
SN12C renal = tested on: SN12C renal
SNB-75 CNS = tested on: SNB-75 CNS
ACHN renal = tested on: ACHN renal
OVCAR-4 ovarian = tested on: OVCAR-4 ovarian
NCI/ADR-RES ovarian = tested on: NCI/ADR-RES ovarian
MCF7 breast = tested on: MCF7 breast
LOX IMVI melanoma = tested on: LOX IMVI melanoma
786-0 renal = tested on: 786-0 renal
HOP-92 NSCLC = tested on: HOP-92 NSCLC
SF-539 CNS = tested on: SF-539 CNS
M14 melanoma = tested on: M14 melanoma
U251 CNS = tested on: U251 CNS
PC-3 prostate = tested on: PC-3 prostate
HL-60(TB) leukemia = tested on: HL-60(TB) leukemia
OVCAR-5 ovarian = tested on: OVCAR-5 ovarian
IGROV1 ovarian = tested on: IGROV1 ovarian
SNB-19 CNS = tested on: SNB-19 CNS
CAKI-1 renal = tested on: CAKI-1 renal
OVCAR-3 ovarian = tested on: OVCAR-3 ovarian
RPMI-8226 leukemia = tested on: RPMI-8226 leukemia
A498 renal = tested on: A498 renal
RXF 393 renal = tested on: RXF 393 renal
MALME-3M melanoma = tested on: MALME-3M melanoma
HCC-2998 colon = tested on: HCC-2998 colon
HCT-15 colon = tested on: HCT-15 colon
NCI-H23 lung = tested on: NCI-H23 lung
KM12 colon = tested on: KM12 colon
NCI-H226 lung = tested on: NCI-H226 lung
HS 578T breast = tested on: HS 578T breast
DU-145 prostate = tested on: DU-145 prostate
UO-31 renal = tested on: UO-31 renal
COLO 205 colon = tested on: COLO 205 colon
OVCAR-8 ovarian = tested on: OVCAR-8 ovarian
K-562 leukemia = tested on: K-562 leukemia
MOLT-4 leukemia = tested on: MOLT-4 leukemia
SK-MEL-2 melanoma = tested on: SK-MEL-2 melanoma
SK-MEL-5 melanoma = tested on: SK-MEL-5 melanoma
NCI-H460 lung = tested on: NCI-H460 lung
HOP-62 NSCLC = tested on: HOP-62 NSCLC
MDA-MB-435 = tested on: MDA-MB-435
SF-295 CNS = tested on: SF-295 CNS
SF-268 CNS = tested on: SF-268 CNS
SR leukemia = tested on: SR leukemia
UACC-257 melanoma = tested on: UACC-257 melanoma
HCT-116 colon = tested on: HCT-116 colon
CCRF-CEM leukemia = tested on: CCRF-CEM leukemia
BT-549 breast = tested on: BT-549 breast

Q: What does the source list for COc1ccc(OC)c(Cn2cc3c(c2-c2ccccc2)CCc2cnoc2-3)c1?
A: GI50 (TK-10 renal): 8.01 µM; TGI (TK-10 renal): > 100 µM; GI50 (HT29 colon): 3.15 µM; TGI (HT29 colon): > 100 µM; GI50 (MDA-MB-231 breast): 5.98 µM; TGI (MDA-MB-231 breast): > 100 µM; GI50 (SK-OV-3 ovarian): 7.48 µM; TGI (SK-OV-3 ovarian): > 100 µM; GI50 (SW-620 colon): 3.69 µM; TGI (SW-620 colon): > 100 µM; GI50 (UACC-62 melanoma): 3.8 µM; TGI (UACC-62 melanoma): > 100 µM; GI50 (A549 NSCLC): 5.75 µM; TGI (A549 NSCLC): > 100 µM; GI50 (T-47D breast): 18.1 µM; TGI (T-47D breast): > 100 µM; GI50 (EKVX NSCLC): 6.9 µM; TGI (EKVX NSCLC): > 100 µM; GI50 (SK-MEL-28 melanoma): 6.8 µM; TGI (SK-MEL-28 melanoma): > 100 µM; GI50 (NCI-H522 lung): 1.74 µM; TGI (NCI-H522 lung): 6.25 µM; GI50 (SN12C renal): 23.8 µM; TGI (SN12C renal): > 100 µM; GI50 (SNB-75 CNS): 2.89 µM; TGI (SNB-75 CNS): 9.9 µM; GI50 (ACHN renal): 6.89 µM; TGI (ACHN renal): > 100 µM; GI50 (OVCAR-4 ovarian): 11.3 µM; TGI (OVCAR-4 ovarian): > 100 µM; GI50 (NCI/ADR-RES ovarian): 2.48 µM; TGI (NCI/ADR-RES ovarian): 7.55 µM; GI50 (MCF7 breast): 4.47 µM; TGI (MCF7 breast): > 100 µM; GI50 (LOX IMVI melanoma): 4.92 µM; TGI (LOX IMVI melanoma): > 100 µM; GI50 (786-0 renal): 6.09 µM; TGI (786-0 renal): > 100 µM; GI50 (HOP-92 NSCLC): 5.26 µM; TGI (HOP-92 NSCLC): > 100 µM; GI50 (SF-539 CNS): 4.24 µM; TGI (SF-539 CNS): 56.9 µM; GI50 (M14 melanoma): 4.82 µM; TGI (M14 melanoma): > 100 µM; GI50 (U251 CNS): 5.38 µM; TGI (U251 CNS): > 100 µM; GI50 (PC-3 prostate): 8.73 µM; TGI (PC-3 prostate): > 100 µM; GI50 (HL-60(TB) leukemia): 2.03 µM; TGI (HL-60(TB) leukemia): 6.52 µM; GI50 (OVCAR-5 ovarian): 10.8 µM; TGI (OVCAR-5 ovarian): > 100 µM; GI50 (IGROV1 ovarian): 6.11 µM; TGI (IGROV1 ovarian): > 100 µM; GI50 (SNB-19 CNS): 9.43 µM; TGI (SNB-19 CNS): > 100 µM; GI50 (CAKI-1 renal): 4.35 µM; TGI (CAKI-1 renal): > 100 µM; GI50 (OVCAR-3 ovarian): 2.7 µM; TGI (OVCAR-3 ovarian): 7.95 µM; GI50 (RPMI-8226 leukemia): 6.54 µM; TGI (RPMI-8226 leukemia): > 100 µM; GI50 (A498 renal): 2.12 µM; TGI (A498 renal): 9.28 µM; GI50 (RXF 393 renal): 6.12 µM; TGI (RXF 393 renal): > 100 µM; GI50 (MALME-3M melanoma): 3.7 µM; TGI (MALME-3M melanoma): > 100 µM; GI50 (HCC-2998 colon): 8.83 µM; TGI (HCC-2998 colon): > 100 µM; GI50 (HCT-15 colon): 4 µM; TGI (HCT-15 colon): > 100 µM; GI50 (NCI-H23 lung): 7.99 µM; TGI (NCI-H23 lung): > 100 µM; GI50 (KM12 colon): 3.61 µM; TGI (KM12 colon): > 100 µM; GI50 (NCI-H226 lung): 40.8 µM; TGI (NCI-H226 lung): > 100 µM; GI50 (HS 578T breast): 4.95 µM; TGI (HS 578T breast): > 100 µM; GI50 (DU-145 prostate): 17.4 µM; TGI (DU-145 prostate): > 100 µM; GI50 (UO-31 renal): 6.38 µM; TGI (UO-31 renal): > 100 µM; GI50 (COLO 205 colon): 6.31 µM; TGI (COLO 205 colon): > 100 µM; GI50 (OVCAR-8 ovarian): 19.2 µM; TGI (OVCAR-8 ovarian): > 100 µM; GI50 (K-562 leukemia): 2.67 µM; TGI (K-562 leukemia): > 100 µM; GI50 (MOLT-4 leukemia): 3.95 µM; TGI (MOLT-4 leukemia): > 100 µM; GI50 (SK-MEL-2 melanoma): 3.71 µM; TGI (SK-MEL-2 melanoma): 59.2 µM; GI50 (SK-MEL-5 melanoma): 3.7 µM; TGI (SK-MEL-5 melanoma): 40.3 µM; GI50 (NCI-H460 lung): 3.3 µM; TGI (NCI-H460 lung): > 100 µM; GI50 (HOP-62 NSCLC): 9.13 µM; TGI (HOP-62 NSCLC): > 100 µM; GI50 (MDA-MB-435): 2.18 µM; TGI (MDA-MB-435): 9.11 µM; GI50 (SF-295 CNS): 3.19 µM; TGI (SF-295 CNS): > 100 µM; GI50 (SF-268 CNS): 6.24 µM; TGI (SF-268 CNS): > 100 µM; GI50 (SR leukemia): 2.62 µM; TGI (SR leukemia): > 100 µM; GI50 (UACC-257 melanoma): 30.7 µM; TGI (UACC-257 melanoma): > 100 µM; GI50 (HCT-116 colon): 4.04 µM; TGI (HCT-116 colon): > 100 µM; GI50 (CCRF-CEM leukemia): 4.48 µM; TGI (CCRF-CEM leukemia): > 100 µM

Q: What does the source list for CN(C)c1ccc(-c2ccc(-c3ccc(C(=N)N)cc3)s2)cc1?
A: GI50 (MDA-MB-231 breast): 1.81 µM; TGI (MDA-MB-231 breast): 3.57 µM; GI50 (NCI/ADR-RES ovarian): 2.35 µM; TGI (NCI/ADR-RES ovarian): 5.45 µM; GI50 (786-0 renal): 2.21 µM; TGI (786-0 renal): 5.06 µM; GI50 (BT-549 breast): 21 µM; TGI (BT-549 breast): 78.3 µM; GI50 (SF-539 CNS): 1.76 µM; TGI (SF-539 CNS): 3.38 µM; GI50 (HL-60(TB) leukemia): 2.03 µM; TGI (HL-60(TB) leukemia): 4.57 µM; GI50 (OVCAR-5 ovarian): 1.73 µM; TGI (OVCAR-5 ovarian): 3.38 µM; GI50 (CAKI-1 renal): 1.79 µM; TGI (CAKI-1 renal): 3.77 µM; GI50 (A498 renal): 0.0155 µM; TGI (A498 renal): 0.0866 µM; GI50 (RXF 393 renal): 1.81 µM; TGI (RXF 393 renal): 3.99 µM; GI50 (NCI-H226 lung): 32.6 µM; TGI (NCI-H226 lung): > 100 µM; GI50 (HS 578T breast): 2.14 µM; TGI (HS 578T breast): 5.19 µM; GI50 (DU-145 prostate): 1.8 µM; TGI (DU-145 prostate): 3.37 µM; GI50 (UO-31 renal): 1.64 µM; TGI (UO-31 renal): 3.22 µM; GI50 (SF-295 CNS): 1.9 µM; TGI (SF-295 CNS): 3.61 µM
